{
  "source": "BindingDB's records for doi:10.1021/acs.jmedchem.8b01497",
  "about": "(\"Sapienza\" Universit&#163, 2018)",
  "biological_target": "T1, Heparanase (Homo sapiens, UniProt Q9Y251)",
  "T1 sequence (Q9Y251 whole entry)": "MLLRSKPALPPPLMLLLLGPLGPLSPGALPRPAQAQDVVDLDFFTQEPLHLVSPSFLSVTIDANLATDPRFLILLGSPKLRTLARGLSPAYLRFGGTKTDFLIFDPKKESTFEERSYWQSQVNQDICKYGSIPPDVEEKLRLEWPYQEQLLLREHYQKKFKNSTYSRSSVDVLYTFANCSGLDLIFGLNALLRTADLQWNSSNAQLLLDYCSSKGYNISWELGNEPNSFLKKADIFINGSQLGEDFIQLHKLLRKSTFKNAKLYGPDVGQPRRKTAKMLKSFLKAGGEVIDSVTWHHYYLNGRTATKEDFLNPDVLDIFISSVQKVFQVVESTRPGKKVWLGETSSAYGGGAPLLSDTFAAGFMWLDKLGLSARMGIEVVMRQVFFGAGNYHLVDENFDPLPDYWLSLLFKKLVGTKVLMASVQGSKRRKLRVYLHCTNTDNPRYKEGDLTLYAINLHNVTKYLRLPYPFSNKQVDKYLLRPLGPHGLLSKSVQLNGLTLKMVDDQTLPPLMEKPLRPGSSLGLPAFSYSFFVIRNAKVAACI",
  "experiment": "Inhibition of recombinant HPSE (unknown origin) using fondaparinux as substrate incubated for 3 hrs in absence of light by WST1 assay",
  "data": [
    {"smiles": "CC(=O)N[C@H]1[C@@H](O[C@@H](CO)C(O[C@H](O)CO)C(=O)O)O[C@H](CO)[C@@H](O[C@@H]2OC(C(=O)O)[C@@H](O[C@H]3O[C@H](CO)[C@@H](O)[C@H](O)[C@H]3NC(C)=O)[C@H](O)[C@H]2OS(=O)(=O)O)[C@@H]1O", "note": "(stereo partly specified)", "values": [
      {"measurement": "IC50", "value": 5, "unit": "nM"}
    ]}
  ]
}
